Tests used:
[1] = target: T1, Fructofuranosidase activity of the extracellular fraction of S. occidentalis (Schwanniomyces occidentalis, UniProt P24133); experiment: Fructofuranosidase activity of the extracellular fraction on different carbohydrates (glucose release, glucose oxidase-peroxidase); format: biochemical; details: for Fructofuranosidase activity on substrate (in words): extracellular fraction, named sugar used as substrate; for Specific activity: extracellular fraction concentrated (30 kDa filter) and dialysed, activity on the named substrate
T1 construct: the enzyme object of the invention is extracellularly released; endogenous in cells; host or cells: Schwanniomyces occidentalis (ATCC26077 named) grown in lactose medium; the cell-free supernatant was concentrated by 30 kDa tangential filtration and dialysed
T1 sequence (P24133 other isoform, or with tags, fused parts or gaps with the stated changes): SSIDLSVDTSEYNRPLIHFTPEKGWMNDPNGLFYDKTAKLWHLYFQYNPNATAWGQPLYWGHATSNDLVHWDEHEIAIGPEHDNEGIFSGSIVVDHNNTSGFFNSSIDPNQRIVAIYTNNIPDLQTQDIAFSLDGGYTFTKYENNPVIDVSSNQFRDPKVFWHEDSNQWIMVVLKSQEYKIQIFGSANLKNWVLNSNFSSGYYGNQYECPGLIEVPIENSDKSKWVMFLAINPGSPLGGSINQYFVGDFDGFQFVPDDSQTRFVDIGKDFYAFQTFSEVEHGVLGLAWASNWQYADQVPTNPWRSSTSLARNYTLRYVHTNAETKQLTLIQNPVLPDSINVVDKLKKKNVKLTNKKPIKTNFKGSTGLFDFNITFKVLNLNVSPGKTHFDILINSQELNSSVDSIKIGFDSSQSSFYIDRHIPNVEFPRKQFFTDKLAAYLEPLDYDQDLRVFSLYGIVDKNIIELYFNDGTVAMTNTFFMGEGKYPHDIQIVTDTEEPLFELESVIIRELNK
Protocol: (§1) The cell free fraction was obtained by centrifugation (F-0) of a culture of S. occidentalis ATCC26077 grown at 29° C. and 235 rpm. Fructofuranosidase activity was assayed in the latter, determining the glucose release on different substrates. A colorimetric assay and the standard methodology were used. The released glucose was quantified using the glucose oxidase-peroxidase coupled reaction: 0.4 ml of the solution to be determined was mixed with 0.1 ml of A:B (20:1) solution (A: 0.85 U/ml glucose oxidase, 0.40 U/ml peroxidase in sodium phosphate buffer pH 5; B: 0.6% O-dianisidine). It was incubated for 30 minutes at 37° C. and spectrophotometrically quantified at 450 nm. A standard glucose curve (0 to 100 μg/ml) was used. The fructofuranosidase activity unit is defined in μmol/ml min of glucose determined in the described conditions.
The cell free fraction, obtained by centrifugation, of a culture of S. occidentalis grown in lactose medium: 0.3% (w/v) YNB (yeast nitrogen base w/o amino acids, DIFCO), 3.5% (w/v) bactopeptone (DIFCO), 0.5% (w/v) KH2 PO4, 1% (w/v) MgSO4.7H2O, 1% (w/v) (NH4)SO4, and 2% lactose as a carbon source (R. D. Klein et al., “Purification and characterization of invertase from to novel industrial yeast, Schwanniomyces occidentalis”, Prep. Biochem, 1989, vol 19, pp. 293-319), grown until an optical density of 8.34 OD 660 nm, was concentrated using a tangential filtration system (30 kDa filter) followed by dialysis against 20 mM HCl-Tris pH 7 for 2 hours at a temperature of 4° C. and was assayed on different substrates.

[2] = target: T2, Fructofuranosidase activity of the F-3 fraction of S. occidentalis (Schwanniomyces occidentalis, UniProt P24133); experiment: Fructofuranosidase (hydrolytic) activity of the purified enzyme F-3 on different substrates; format: biochemical; details: for Hydrolytic activity on substrate (in words): purified enzyme F-3; for Activity specific: purified protein F-3, 1% substrate
T2 construct: the enzyme object of the invention is extracellularly released; endogenous in cells; host or cells: Schwanniomyces occidentalis culture supernatant; concentrated (F-1), then DEAE-Sephacel at pH 7 (F-2) and at pH 5 (F-3)
T2 sequence (P24133 other isoform, or with tags, fused parts or gaps with the stated changes): as above
Protocol: as §1
The hydrolytic activity of the purified enzyme (F-3), following the described method, was assayed on different substrates. The maximum activity level is obtained on sucrose. Activity on lactose, leucrose, turanose or palatinose was not observed.

## OC[C@H]1O[C@H](OC[C@H]2OC(O)(CO)[C@@H](O)[C@@H]2O)[C@H](O)[C@@H](O)[C@@H]1O (stereo partly drawn) [palatinose]
[1]
  Fructofuranosidase activity on substrate (in words): No activity was detected
[2]
  Hydrolytic activity on substrate (in words): not observed

## OC[C@H]1O[C@H](OC[C@H]2O[C@H](O[C@]3(CO)O[C@H](CO)[C@@H](O)[C@@H]3O)[C@H](O)[C@@H](O)[C@@H]2O)[C@H](O)[C@@H](O)[C@H]1O [raffinose]
[1]
  Specific activity: 0.2 mU/μg
[2]
  Activity specific: 7.5 mU/μg

## OC[C@H]1O[C@@H](O[C@H]2[C@H](O)[C@@H](O)C(O)O[C@@H]2CO)[C@H](O)[C@@H](O)[C@H]1O (stereo partly drawn) [lactose]
[1]
  Fructofuranosidase activity on substrate (in words): No activity was detected
[2]
  Hydrolytic activity on substrate (in words): not observed

## OC[C@H]1O[C@H](O[C@@H]2COC(O)(CO)[C@@H](O)[C@@H]2O)[C@H](O)[C@@H](O)[C@@H]1O (stereo partly drawn) [leucrose]
[1]
  Fructofuranosidase activity on substrate (in words): No activity was detected
[2]
  Hydrolytic activity on substrate (in words): not observed

## OC[C@H]1O[C@@](CO)(OC[C@@]2(OC[C@@]3(O[C@H]4O[C@H](CO)[C@@H](O)[C@H](O)[C@H]4O)O[C@H](CO)[C@@H](O)[C@@H]3O)O[C@H](CO)[C@@H](O)[C@@H]2O)[C@@H](O)[C@@H]1O [nystose]
[1]
  Specific activity: 0.6 mU/μg
[2]
  Activity specific: 6.2 mU/μg

## O=C(CO)[C@@H](O[C@H]1O[C@H](CO)[C@@H](O)[C@H](O)[C@H]1O)[C@H](O)[C@H](O)CO [turanose]
[1]
  Fructofuranosidase activity on substrate (in words): No activity was detected
[2]
  Hydrolytic activity on substrate (in words): not observed

Reference: patent US20090148907A1, “NOVEL FRUCTOFURANOSIDASE ACTIVITY FOR OBTAINING THE PREBIOTIC OLIGOSACCHARIDE 6-KESTOSE” (CONSEJO SUPERIOR DE INVESTIGACIONES CIENTIFICAS, priority 2005, published 2009)
